# Assay results reported in patent publication US20040076954A1, “Genomics-driven high speed cellular assays, development thereof, and collections of cellular reporters” (IRM, LLC, priority 2001, published 2004).
# What was measured:
# [1] = test system: HepG2 (human hepatoma cells); experiment: Gene chip (Affymetrix) expression profiling of HGF-treated hepatocyte cells; type: cell-based; settings: HepG2, 75 ng/ml HGF 4 hours vs untreated
# Protocol: A method assessing the responsiveness of gene transcript to Hepatocyte Growth Factor (HGF) in a human hepatocyte cell line is exemplified.
# Human hepatocyte cells, HepG2 (human hepatoma cells ATCC accession no. HB-8065), were plated at 8×10^5 cells per ml in a 4 separate wells of a 6-well plate and incubated overnight at 37° C., 5% CO2. Eighteen hours after plating, 2 wells of cells were treated with 75 ng/ml of HGF continuously for 4 hours, while two samples were left untreated. Cells were harvested by 1×PBS wash, scraped into a 15 ml conical tube and placed on ice. Samples were centrifuged to pellet the cells, flash frozen on dry ice and submitted for RNA extraction.
# The following protocol was used to isolate total RNA from the 2 untreated and 2 treated samples:
# The following protocol was used to generate cDNA then cRNA from the total RNA preparation:
# The following protocol was used to hybridize the cRNA to gene chips (Affymetrix):
# Following the hybridization, the chips are analyzed for relative fluorescence intensity corresponding to each set of oligonucleotides. The location of each oligonucleotide and the gene it represents on the array is known. Using, for example, Microsoft Excel, a list of each oligonucleotide, corresponding gene and relative intensity are recorded and saved. The data sets for treated and untreated are compared side-by-side for average-fold change. The resulting list is parsed by magnitude fold-change and can be represented as text (Excel), or visually (Gene-Spring or Tree-view).
# The following details the results of a chip study. […] The list begins with the greatest fold induction (FC) and ends with greatest fold repression.
# [2] = test system: Mouse macrophage cell line RAW264.7; experiment: Antibiotic selection of transfected RAW264.7 cells; type: cell-based; settings: transfected RAW cells
# Protocol: Mouse macrophage cell line RAW264.7 from the ATCC was used for reporter gene assays. RAW cells were cultured at 37° C. in Dulbecco's modified Eagle medium (GibcoBRL), supplemented with 10% defined fetal bovine serum (low endotoxin, Hyclone). Transient transfection was carried out in 6 well plates with SuperFect Transfection Reagent (Qiagen) using the protocol provided by the supplier. In brief, 6×10^5 cells were seeded in each well the day before transfection. 2 μg of DNA and 10 μl of SuperFect reagent were added to the cells. For the purposed of selecting stable cell lines, vectors containing antibiotic resistant genes (e.g. hygromycin, puromycin and blasticidin) were also included at a ratio of 1:5 or 1:10 to the reporter DNA. 48 hours post-transfection, the cells were transferred into 10 cm dishes. An antibiotic was added at 150 μg/ml of hygromycin, 400 ng/ml of puromycin, or 3 μg/ml of blasticidin. […] Two weeks later, the cells which sustained antibiotic selection were seeded into three 96 well plates at the density of 0.3 cell/well. After 3-4 weeks, 44 single clones each of MALH (hygromycin) and MALB (blasticidin) were harvested and assayed. Pools of MALH or MALB were also combined for population experiments. The total selection time was 5-6 weeks.
compound,measurement,setting,value
Hepatocyte Growth Factor [HGF],FC (fold change) 277_at myeloid cell differentiation protein (MCL1) (L08246),[1],6 fold
same,FC (fold change) 529_at dual-specificity protein phosphatase (U15932),[1],5 fold
same,"FC (fold change) 660_at mitochondrial 1,25-dihydroxyvitamin D3 24-hydroxylase (L13286)",[1],9 fold
same,FC (fold change) 1237_at IEX-1 radiation-inducible immediate-early gene (S81914),[1],8 fold
same,FC (fold change) 1379_at HUMECK protein tyrosine kinase (M59371),[1],8 fold
same,FC (fold change) 1890_at TGF-beta superfamily protein (AB000584),[1],5 fold
same,FC (fold change) 2057_g_at fibroblast growth factor (FGF) receptor-1 (M34641),[1],5 fold
same,FC (fold change) 31888_s_at IPL (AF001294),[1],14 fold
same,FC (fold change) 32786_at jun-B (X51345),[1],7 fold
same,FC (fold change) 33146_at myeloid cell differentiation protein (MCL1) (L08246),[1],6 fold
same,FC (fold change) 34476_r_at epiregulin (D30783),[1],15 fold
same,FC (fold change) 34898_at amphiregulin (AR) (M30704),[1],13 fold
same,FC (fold change) 35372_r_at beta-thromboglobulin-like protein (M17017),[1],8 fold
same,FC (fold change) 35454_at KIAA0450 protein (AB007919),[1],5 fold
same,FC (fold change) 35597_at C8FW phosphoprotein (AJ000480),[1],7 fold
same,FC (fold change) 36097_at transcription factor ETR101 (M62831),[1],5 fold
same,FC (fold change) 36324_at A2b adenosine receptor (X68487),[1],6 fold
same,FC (fold change) 36344_at proteinase-activated receptor-2 (U34038),[1],7 fold
same,FC (fold change) 36345_g_at proteinase-activated receptor-2 (U34038),[1],8 fold
same,FC (fold change) 36543_at placental tissue factor (J02931),[1],7 fold
same,FC (fold change) 36711_at novel MAFF LIKE protein (AL021977),[1],8 fold
same,FC (fold change) 36742_at putative zinc finger protein (ZNFB7) (U34249),[1],5 fold
same,FC (fold change) 37680_at gravin (U81607),[1],7 fold
same,FC (fold change) 38125_at beta-migrating plasminogen activator inhibitor I (M14083),[1],13 fold
same,"FC (fold change) 38247_at proteinase activated receptor-2 mRNA, 3UTR (U67058)",[1],9 fold
same,FC (fold change) 38772_at CYR61 (Y11307),[1],9 fold
same,FC (fold change) 39105_at vasodilator-stimulated phosphoprotein (VASP) (Z46389),[1],11 fold
same,FC (fold change) 39248_at za55a01.s1 cDNA (N74607),[1],6 fold
same,FC (fold change) 40385_at chemokine exodus-1 mRNA (U64197),[1],19 fold
same,FC (fold change) 40614_at SHB (X75342),[1],8 fold
same,FC (fold change) 41193_at DUSP6 (AB013382),[1],6 fold
same,FC (fold change) 41524_at inositol polyphosphate 1-phosphatase (L08488),[1],6 fold
same,FC (fold change) 1974_s_at p53 cellular tumor antigen (X02469),[1]; negative = repression,−5 fold
same,FC (fold change) 2089_s_at H06628 similar to ERBB-3 receptor protein-tyrosine kinase precursor,[1]; negative = repression,−5 fold
same,FC (fold change) 32787_at epidermal growth factor receptor (HER3) (M34309),[1]; negative = repression,−8 fold
same,FC (fold change) 36048_at HRIHFB2436 (AB015342),[1]; negative = repression,−5 fold
same,FC (fold change) 37487_at KIAA1093 protein (AB029016),[1]; negative = repression,−5 fold
COc1ccc(C[C@H](N)C(=O)N[C@H]2[C@@H](O)[C@H](n3cnc4c(N(C)C)ncnc43)O[C@@H]2CO)cc1 [puromycin],cell death within 3 days of antibiotic selection,[2]; 400 ng/ml puromycin,not
CN(CC[C@H](N)CC(=O)N[C@H]1C=C[C@H](n2ccc(N)nc2=O)O[C@@H]1C(=O)O)C(=N)N [blasticidin],cell death within 3 days of antibiotic selection,[2]; 3 μg/ml blasticidin,Massive cell death
